Results from PubChem BioAssay AID1845202 (Molecular Pharmacology Branch, DTP, NCI, 2023).

Test system: DMS 114 tumor spheroids, viability % test/control
Test: Anticancer human tumor DMS 114 cell line growth inhibition;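 further: spheroids exposed to compounds for 7 days before read-out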;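 on viability, T/C: luminescence used as a proxy for viable cells; 100% = DMSO vehicle control viability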
Details: spheroids with HUVEC and MSC; for IC50: curve of first compound; for viability, T/C: stronger effect = lower value
Text: Multicellular complex tumor spheroid response to DNA repair inhibitors in combination with DNA-damaging drugs
This study explores the anticancer activities of DNA-damaging drugs and inhibitors of DNA damage repair, both as single agents and in combinations. Complex tumor spheroids comprised of malignant cells, endothelial cells and mesenchymal stem cells served as an in vitro model for human solid tumors. This model system incorporates physiologically relevant features and patient-derived or established malignant cell lines with clinically relevant genetic alterations from many tumor types. Twenty-six patient-derived or established malignant cell lines were evaluated representing sarcoma, melanoma, small cell lung cancer (SCLC), non-small cell lung cancer (NSCLC), as well as bladder, ovarian and pancreatic cancers. The concentration ranges selected for each drug and investigational agent were based upon clinically achievable concentrations if the clinical Cmax of the agent was known.
Compounds. The drugs and compounds olaparib (NSC753686), talazoparib (NSC767125), berzosertib (NSC777718), elimusertib (NSC800525), nedisertib (NSC802822), VX-984 (NSC792969), AZD-1390 (NSC803789), temozolomide (NSC362856), topotecan (NSC609699), trabectedin (NSC813783), staurosporine (NSC755774), and gemcitabine (NSC613327) were obtained from the National Cancer Institute (NCI) Developmental Therapeutics Program Chemical Repository. The FDA-approved anticancer drug set is available from the Developmental Therapeutics Program at https://dtp.cancer.gov/organization/dscb/obtaining/available_plates.htm. […] The stock solutions were prepared in dimethyl sulfoxide (DMSO, Sigma-Aldrich, St. Louis, MO, cat. D2650) at 400-fold the tested concentration and stored at -70 degrees C. Prior to their use, the stock solutions were diluted in fresh medium and the final DMSO concentration in the assay was 0.25% (v/v). All drugs and investigational agents were tested over a range starting from a high concentration at or near the clinical Cmax and decreasing in half-log increments. If the clinical Cmax for an agent had not been determined, the highest concentration tested was 10 microM.
Cell Lines. The patient-derived cancer cell (PDC) lines: 156681-154-R-J1-PDC, 283228-195-R-J1-PDC, 287954-098-R-J1-PDC, 292921-168-R-J2-PDC, 349418-098-R-PDC, 425362-245-T-J1-PDC, 556581-035-R-J1-PDC, and BL0293-F563-PDC were received from the NCI Patient-Derived Models Repository (PDMR, https://pdmr.cancer.gov). The established cell lines HS-SY-2 (RRID:CVCL_8719), MPNST, and SYO-1 (RRID:CVCL_7146) were obtained from the Sloan Kettering Institute. The alveolar soft parts sarcoma cell line ASPS-1 (RRID:CVCL_S738) was established at the NCI and grown from internal seed stocks. The following established cell lines were purchased from the American Type Culture Collection (ATCC, Manassas, VA): G-401 (ATCC, cat. CRL-1441, RRID:CVCL_0270), SW982 (ATCC, cat. HTB-93, RRID:CVCL_1734), VA-ES-BJ (ATCC, cat. CRL-2138, RRID:CVCL_1785), NCI-H719 (ATCC, cat. CRL-5837, RRID:CVCL_1582), NCI-H196 (ATCC, cat. CRL-5823, RRID:CVCL_1509), NCI-H841 (ATCC, cat. CRL-5845, RRID:CVCL_1595), NCI-H1618 (ATCC, cat. CRL-5879, RRID:CVCL_1480), NCI-H1876 (ATCC, cat. CRL-5902, RRID:CVCL_1503), DMS 114 (ATCC, cat. CRL-2066; RRID:CVCL_1174), NCI-H211 (ATCC, cat. CRL-5824; RRID:CVCL_1529), and SW 1271 (ATCC, cat. CRL-2177, RRID:CVCL_1716). The small cell lung cancer cell line COR-L88 was purchased from Sigma-Aldrich (cat. 92031917-1VL, RRID:CVCL_1141). The non-small cell lung cancer cell lines NCI-H226 (RRID:CVCL_1544) and NCI-H322M (RRID:CVCL_1557) were established at the NCI and grown from internal seed stocks. Pooled donor human umbilical vein endothelial cells (HUVEC, Lonza, cat. CC-2519) and human mesenchymal stem cells (hMSC, Lonza, cat. PT-2501) were purchased from Lonza (Walkersville, MD).
Cell Culture. All cells were maintained in an incubator at 37 degrees C and 5% CO2 with 95% humidity. […]

[1] = second compound 0.003 µM, first compound 0.00949 µM
[2] = second compound 0.003 µM, first compound 0.03 µM
[3] = second compound 0.003 µM, first compound 0.0949 µM
[4] = second compound 0.003 µM, first compound 0.3 µM
[5] = second compound 0.003 µM, first compound 0.949 µM
[6] = second compound 0.003 µM, first compound 3 µM
[7] = second compound 0.00949 µM, first compound 0.00949 µM
[8] = second compound 0.00949 µM, first compound 0.03 µM
[9] = second compound 0.00949 µM, first compound 0.0949 µM
[10] = second compound 0.00949 µM, first compound 0.3 µM
[11] = second compound 0.00949 µM, first compound 0.949 µM
[12] = second compound 0.00949 µM, first compound 3 µM
[13] = second compound 0.03 µM, first compound 0.00949 µM
[14] = second compound 0.03 µM, first compound 0.03 µM
[15] = second compound 0.03 µM, first compound 0.0949 µM
[16] = second compound 0.03 µM, first compound 0.3 µM
[17] = second compound 0.03 µM, first compound 0.949 µM
[18] = second compound 0.03 µM, first compound 3 µM
[19] = second compound 0.0949 µM, first compound 0.00949 µM
[20] = second compound 0.0949 µM, first compound 0.03 µM
[21] = second compound 0.0949 µM, first compound 0.0949 µM
[22] = second compound 0.0949 µM, first compound 0.3 µM
[23] = second compound 0.0949 µM, first compound 0.949 µM
[24] = second compound 0.0949 µM, first compound 3 µM
[25] = second compound 0.3 µM, first compound 0.00949 µM
[26] = second compound 0.3 µM, first compound 0.03 µM
[27] = second compound 0.3 µM, first compound 0.0949 µM
[28] = second compound 0.3 µM, first compound 0.3 µM
[29] = second compound 0.3 µM, first compound 0.949 µM
[30] = second compound 0.3 µM, first compound 3 µM

SMILES	IC50 (second compound 0.003 µM) [nM]	IC50 (second compound 0.00949 µM) [nM]	IC50 (second compound 0.03 µM) [nM]	IC50 (second compound 0.0949 µM) [nM]	IC50 (second compound 0.3 µM) [nM]	viability, T/C [3] [%]	viability, T/C [4] [%]	viability, T/C [5] [%]	viability, T/C [6] [%]	viability, T/C [9] [%]	viability, T/C [10] [%]	viability, T/C [11] [%]	viability, T/C [12] [%]	viability, T/C [15] [%]	viability, T/C [16] [%]	viability, T/C [17] [%]	viability, T/C [18] [%]	viability, T/C [21] [%]	viability, T/C [22] [%]	viability, T/C [23] [%]	other results
CNCc1ccc(-c2cc(-c3nc(-c4ccc(S(=O)(=O)C(C)C)cc4)cnc3N)on2)cc1 + CC[C@@]1(O)C(=O)OCc2c1cc1n(c2=O)Cc2cc3c(CN(C)C)c(O)ccc3nc2-1	60	25	< 9.49	< 9.49	< 9.49	37.7	17.1	2.3	0.16	23.5	14.3	3.11	0.14	23.7	11.9	1.54	0.13	12.5	9.06	1.27	viability, T/C [1]: 98.5%; viability, T/C [2]: 68.3%; viability, T/C [7]: 80.3%; viability, T/C [8]: 43%; viability, T/C [13]: 31.3%; viability, T/C [14]: 26.6%; viability, T/C [19]: 16.2%; viability, T/C [20]: 17%; viability, T/C [24]: 0.12%; viability, T/C [25]: 8.52%; viability, T/C [26]: 8.82%; viability, T/C [27]: 9.74%; viability, T/C [28]: 6.32%; viability, T/C [29]: 0.95%; viability, T/C [30]: 0.2%
Cn1ncnc1[C@H]1c2n[nH]c(=O)c3cc(F)cc(c23)N[C@@H]1c1ccc(F)cc1 + CC[C@@]1(O)C(=O)OCc2c1cc1n(c2=O)Cc2cc3c(CN(C)C)c(O)ccc3nc2-1	178	< 9.49	< 9.49	< 9.49	< 9.49	62	38.9	25.2	8.5	32.6	25.3	16.4	9.08	16.2	14	10	4.96	10.9	10.4	6.74	viability, T/C [1]: 80.7%; viability, T/C [2]: 72.9%; viability, T/C [7]: 50.9%; viability, T/C [8]: 37.5%; viability, T/C [13]: 18.6%; viability, T/C [14]: 18.6%; viability, T/C [19]: 12.8%; viability, T/C [20]: 10.6%; viability, T/C [24]: 3.77%; viability, T/C [25]: 7.76%; viability, T/C [26]: 7.9%; viability, T/C [27]: 7.53%; viability, T/C [28]: 5.94%; viability, T/C [29]: 5.76%; viability, T/C [30]: 2.99%
O=C(c1cc(Cc2n[nH]c(=O)c3ccccc23)ccc1F)N1CCN(C(=O)C2CC2)CC1 + CC[C@@]1(O)C(=O)OCc2c1cc1n(c2=O)Cc2cc3c(CN(C)C)c(O)ccc3nc2-1	5040	1830	< 94.9	< 94.9	< 94.9	104	98.3	96.9	68.6	69.3	64.6	64.9	39.1	24	21.4	22.6	17.8	12.9	13.9	13.4	viability, T/C (second compound 0.003 µM, first compound 9.49 µM): 27.3%; viability, T/C (second compound 0.003 µM, first compound 30 µM): 19.7%; viability, T/C (second compound 0.00949 µM, first compound 9.49 µM): 23.8%; viability, T/C (second compound 0.00949 µM, first compound 30 µM): 18%; viability, T/C (second compound 0.03 µM, first compound 9.49 µM): 13.2%; viability, T/C (second compound 0.03 µM, first compound 30 µM): 12.6%; viability, T/C [24]: 11.2%; viability, T/C (second compound 0.0949 µM, first compound 9.49 µM): 9.09%; viability, T/C (second compound 0.0949 µM, first compound 30 µM): 9.45%; viability, T/C [27]: 8.39%; viability, T/C [28]: 8.45%; viability, T/C [29]: 9.03%; viability, T/C [30]: 6.88%; viability, T/C (second compound 0.3 µM, first compound 9.49 µM): 5.76%; viability, T/C (second compound 0.3 µM, first compound 30 µM): 6.93%
